Laboratory results: patent publication US20170226507A1, “COORDINATE CONTROL OF PATHOGENIC SIGNALING BY THE MIR-130/301 FAMILY IN PULMONARY HYPERTENSION AND FIBROPROLIFERATIVE DISEASES” (The Brigham and Women's Hospital, Inc., priority 2014, published 2017)
Entries after “also recorded” stand apart in the source; their conditions may differ.

Legend:
[1] = test system: PAAFs; test: PAAFs in soft or stiff matrix: fibrotic gene expression, immunoblot, collagen secretion; format: cell-based, human
Method: Cell Culture and Reagents: Primary human pulmonary arterial adventitial fibroblast cells (PAAFs) were purchased and propagated in FGM cell culture media (Lonza). Experiments were performed at passages 3 to 6. Primary human pulmonary fibroblast cells (PFs) were purchased and propagated in FGM cell culture media (Lonza). Primary human pulmonary arterial endothelial cells (PAECs) were purchased and propagated in EGM-2 cell culture media (Lonza). Experiments were performed at passages 3 to 6. Primary human pulmonary arterial smooth muscle cells (PASMCs) were purchased and propagated in SmGM-2 cell culture media (Lonza). Experiments were performed at passages 3 to 9. HEK293T cells (American Type Culture Collection) were used and cultivated in DMEM containing 10% fetal bovine serum (FBS). Cells were propagated in coated collagen plastic (50 ug/mL) at 37° C. in a humidified 5% CO2 atmosphere. Collagen-coated hydrogel were purchased.
3D cell culture: Protocol was adapted from previously published protocol (Aragona M et al, 2013 Cell). Cells were embedded in a mixture of Growth Factor Reduced Matrigel (BD Biosciences) and Collagen-I (BD Biosciencres). Collagen-I solution was neutralized on ice with 0.1M NaOH in PBS and adjusted with 0.1N HCl to bring the pH of the solution to 7.5. The Collagen-I solution was then mixed on ice with Matrigel to obtain a final concentration of 1.2 mg/ml (soft matrices) or 3 mg/ml (stiff matrices). Cells were trypsinized, counted, resuspended in growth medium; then, 1 volume of cells was mixed with 1 volume of the ECM mix. 6-well plated were precoated with 1 ml of cellfree 50% medium/50% ECM, and left in the incubator until gelled; then, cells were seeded in drop on top of the pregelled ECM. After gelling, wells were supplemented with normal growth medium, which was changed every 2 days during the experiments.
Oligonucleotides and Transfection: Pre-miRNA oligonucleotides (pre-miR-130a, negative control pre-miR-NC1 and premiR-NC2) and custom designed tiny LNA oligonucleotides (tiny-130: 5′-[…]-3′ (SEQ ID NO: 52), and tiny-NC 5′-[…]-3′ (SEQ ID NO: 54)) were purchased from Life Technologies/Ambion and Exiqon, respectively. siRNAs for PPARγ and OCT4/POU5F1 were purchased from Santa Cruz Biotechnology. siRNA for TIMP2 was purchased from Life Technologies. On Target Plus siRNAs for YAP1, TAZ (WWTR1), LRP8 and scrambled control were purchased from ThermoScientific/Dhermacon. PAAF, PF, PAEC and PASMC were plated in collagen-coated dish (50 ug/mL) and transfected 24 h later at 70-80% confluence using pre-miRNA (5 nM), tiny-LNA (20 nM) or siRNA (25 nM) and Lipofectamine 2000 reagent (Life Technologies), according to the manufacturers' instructions. 8 hours after transfection cells were trypsinized and re-plated in the different hydrogel/3D-matrix.
Primary human pulmonary arterial adventitial fibroblast cells (PAAFs) were purchased (ScienCell Research Laboratories) and grown in FGM cell culture media (Lonza). Experiments were performed at passages 3 to 6. Primary human pulmonary arterial endothelial cells (PAECs) were grown in EGM-2 cell culture media (Lonza), and experiments were performed at passages 3 to 6. Primary human pulmonary arterial smooth muscle cells (PASMCs) were cultured in SmGM-2 cell culture media (Lonza), and experiments were performed at passages 3 to 9. HEK293T cells (American Type Culture Collection) were cultivated in DMEM containing 10% fetal bovine serum (FBS). […]

[2] = test system: PAAFs; test: ECM remodeling experiment (naïve PAAFs plated on remodeled ECM); format: cell-based, human
Method: After the different treatment cells were fixed with PBS/PFA 4% for 10 min and permeabilized with PBS/Triton 100×0.1% for 10 min. Then cells were incubated with anti-YAP1 (#4912; 1/100; Cell signaling) at 4° C. overnight. Secondary antibodies coupled with Alexa-594 (Life Technologies) were used at 1:500. Nuclei were counterstained with DAPI (Sigma).
Following treatment, PAAFs were plated atop soft matrices (see below) in normal growth medium supplemented with 0.5% FBS. After three days, 10 ug/mL of puromycin was added to the growth medium for 48 hours to detach the cells from the matrix. Matrices were washed 3 times (PBS). Naïve PAAFs were then plated on top of these matrices supplemented with normal growth medium 0.5% FBS or harvested for assessment of collagen crosslinking (Picrosirius Red stain). Sixteen hours later, cells were harvested for immunofluorescence experiments or RNA extraction.
(§1) Picrosirius Red stain was achieved through the use of 5 μm paraffin sections stained with 0.1% Picrosirius Red (Direct Red80, Sigma-Aldrich) and counterstained with Weigert's hematoxylin to reveal fibrillar collagen. The sections were then serially imaged using with an analyzer and polarizer oriented parallel and orthogonal to each other. Microscope conditions (lamp brightness, condenser opening, objective, zoom, exposure time, and gain parameters) were constant throughout the imaging of all samples. A minimal threshold was set on appropriate control sections for each experiment in which only the light passing through the orthogonally-oriented polarizers representing fibrous structures (i.e., excluding residual light from the black background) was included. The threshold was maintained for all images across all conditions within each experiment. The area of the transferred regions that was covered by the thresholded light was calculated and at least 10 sections/vessel per condition were averaged together (Image J software).

[3] = test system: hypoxia-induced PH in mice; test: Hypoxia-induced PH in mice: BAPN (prevention, rescue) or GW3965 (prevention); format: in vivo, mouse
From the text: Finally, we wanted to determine if ApoE activity and/or LOX-dependent vascular stiffening were essential for ECM stiffening and PH development by miR-130/301. To assess the importance of ApoE activity, we attempted to prevent PH in mice via treatment with daily dietary ingestion of the liver-X nuclear hormone receptor (LXR) agonist GW3965, a known pharmacologic inducer of ApoE (Pencheva et al., 2014), simultaneously with hypoxia (FIGS. 62A-62H and 68A-H). Alternatively, experiments were designed to either prevent or reverse hypoxia-induced PH in mice via serial treatment with a pharmacologic inhibitor of LOX (Levental et al., 2009), β-aminopropionitrile BAPN, administered either simultaneously with hypoxia exposure (“prevention”) or after disease development (“reversal”) (FIGS. 62A-62H and 68A-H). In all cases of GW3965 or BAPN treatment, collagen crosslinking (FIG. 62D, 62H, FIG. 68) was inhibited, leading to decreased indices of PH, as reflected by RVSP (FIG. 62A, 62E), right ventricular remodeling (RV/LV+S ratio; FIG. 62B, 62F) and pulmonary arteriolar muscularization (FIG. 62C, 62G). GW3965 or BAPN treatment also reversed Pparγ and Lrp8 down-regulation (FIGS. 68A-68H) as well as reduced YAP nuclear localization (FIG. 62D, 62H) and YAP activation, as reflected by decreased Ctgf (FIGS. 68A-68H). Thus, considering the convergent data regarding pharmacologic manipulation of miR-130/301, APOE, and LOX, we can conclude that the YAP-TAZ-miR-130/301 circuit and its downstream network of targets act as master regulators of ECM remodeling in PH and represent a new set of targets for tailored molecular therapy in this disease.
To determine the effects of the LXR agonist GW3965 (Sigma-Aldrich) and consequent APOE induction on PH development, as previously described (Pencheva et al., 2014), mice were exposed to normobaric hypoxia and simultaneously assigned to control chow or chow supplemented with GW3965 (Research Diets, Inc.) at doses of 100 mg of drug per kilogram of mouse per day (based on average daily intake of […] of chow).
as §1
This protocol was adapted from a previously published protocol (Hu et al.). Mouse lung was weighed, minced, and incubated in 0.5 M acetic acid at 4° C. After overnight digestion, the acetic acid-soluble and insoluble fractions were isolated by centrifugation. The soluble fraction was stored at −80° C., while the insoluble fraction was digested by overnight incubation in 6M hydrochloric acid at 85° C. Concentrations of soluble and insoluble (gelatinous) collagen fractions were determined using a Sircol Soluble Collagen Assay Kit (Biocolor) with a colorimetric reaction (measured at 550 nm) and a provided collagen reference standard curve.

[4] = test system: pulmonary tissue and pulmonary vasculature of mice; test: Forced expression of miR-130a in mouse lung (SU5416, intrapharyngeal mimic) with or without rosiglitazone or BAPN
Method: In the presence of SU5416 (days of injection are highlighted in red) but in the absence of hypoxia, intrapharyngeal injection of wildtype mice was performed serially 4 times at 1 week intervals with 1 nmol of miR-NC or 1 nmol of miR-130a (days of administration are in black). During this period, mice were treated daily by oral gavage with 20 mg/kg of rosiglitazone or vehicle. At day 25, echocardiography and right heart catheterization was performed followed by euthanasia and blood/tissue sampling.
Eight-week-old mice (C57Bl6) were injected with SU5416 weekly (20 mg/kg/dose; Sigma-Aldrich), accompanied by 4 intrapharyngeal injections (once by week) of 1 nmol of miR-control (pre-miR-NC) or miR-130a (pre-miR-130a) mixed in 100 uL PBS solution containing 5% Lipofectamine 2000 (Life Technologies). Three days after the last injection, right heart catheterization was performed as previously described (9), followed by harvest of lung tissue for RNA extraction or paraffin embedding, as described above. Rosiglitazone (Cayman Chemicals) was dissolved in 0.25% carboxymethyl cellulose medium viscosity aqueous solution. This rosiglitazone solution versus vehicle control was delivered daily (20 mg/kg/day) by oral gavage to mice for 3 weeks.
After physiological measurements, blood was extracted by cardiac puncture for future analyses (hematocrit, plasma extraction). By direct right ventricular puncture, the pulmonary vessels were gently flushed with 1 cc of saline to remove the majority of blood cells, prior to harvesting cardiopulmonary tissue. The heart was removed, followed by dissection and weighing of the right ventricle (RV) and of the left ventricle+septum (LV+S). Organs were then harvested for histological preparation or flash frozen in liquid N2 for subsequent homogenization and extraction of RNA and/or protein. To further process lung tissue specifically, prior to excision, lungs were flushed with PBS at constant low pressure (˜10 mmHg) via right ventricular cannulation, followed by tracheal inflation of the left lung with 10% neutral-buffered formalin (Sigma-Aldrich) at a pressure of −20 cm H2O. After excision and 16 hours of fixation in 10% neutral-buffered formalin at 25° C., lung tissues were paraffin-embedded via an ethanol-xylene dehydration series, before being sliced into 5 μm sections (Hypercenter XP System and Embedding Center, Shandon).
Lung sections (5 μm) were deparaffinized and high temperature antigen retrieval was performed followed by blocking in TBS/BSA 5%, 10% goat serum and exposure to primary antibody and biotinylated secondary antibody (Vectastain ABC kit, Vector Labs). In most cases, color development was achieved by adding streptavidin-biotinylated alkaline phosphatase complex (Vector Labs) followed by Vector Red alkaline phosphatase substrate solution (Vector Labs). Levamisole was added to block endogenous alkaline phosphatase activity (Vector Labs). Pictures were obtained using an Olympus Bx51 microscope (40× objective). Small pulmonary vessels (<100 μm diameter) present in a given tissue section (>10 vessels per section) that were not associated with bronchial airways were selected for analysis (N>5 animals per group). Intensity of staining was quantified using ImageJ software (NIH). Degree of pulmonary arteriolar muscularization was assessed in paraffin-embedded lung sections stained for α-SMA by calculation of the proportion of fully and partially muscularized peripheral (<100 μm diameter) pulmonary arterioles to total peripheral pulmonary arterioles, as previously described (29). Medial thickness was also measured in α-SMA stained vessels (<100 μm diameter) using ImageJ software (NIH) and expressed as arbitrary units. All measurements were performed blinded to condition.

[5] = rosiglitazone or BAPN on top of miR-130a

Compound	collagen content of conditioned media (collagen secretion) ([1]; PAAFs)	miR-130a-induced up-regulation of collagen, CTGF, and LOX ([1]; PAAFs exposed to exogenous ApoE)	collagen crosslinking of remodeled ECM ([2]; Picrosirius Red)	collagen, LOX, CTGF, and POU5F1/OCT4 in naïve cells plated on remodeled ECM ([2]; RT-qPCR)	miR-130/301 in naïve cells plated on remodeled ECM ([2]; RT-qPCR)	perivascular collagen crosslinking ([3]; Picrosirius Red)	Ctgf, collagen isoforms, and Lox in lung ([3]; RT-qPCR)	whole lung collagen content and crosslinked collagen ([3]; Sircol assay)	arteriolar muscularization ([3]; hypoxic mice)	right ventricular hypertrophy (Fulton index, RV/LV+S) ([3]; hypoxic mice)	RVSP ([3]; hypoxic mice, BAPN prevention and rescue, GW3965 100 mg/kg/day in chow)	hypoxia mediated decreases of Lrp8 and Pparγ ([3]; in situ staining)	hypoxia-mediated increases of α-SMA and YAP ([3]; in situ staining)	miR-130a-mediated changes in collagen, α-SMA, YAP staining and perivascular collagen crosslinking ([4]; BAPN 30 mg/kg/day, Picrosirius Red and in situ staining)	YAP activation and downstream PH manifestations ([4]; BAPN in miR-130-exposed mice)	Ctgf, collagen isoforms and Lox expression in lung ([4]; RT-qPCR, BAPN on top of miR-130a)	right ventricular systolic pressure (RVSP) ([4]; SU5416 mice, miR-130a 1 nmol x4, rosiglitazone 20 mg/kg daily oral or BAPN 30 mg/kg/day on top of miR-130a)	total (soluble) collagen and crosslinked (insoluble) collagen in whole lung ([4]; Sircol / biochemical analysis, BAPN on top of miR-130a)	percentage of muscularized small pulmonary arterioles [4, 5]	right ventricular remodeling, RV/(LV+S) mass ratio [4, 5]
ApoE: Recombinant ApoE (PeproTech) used at 5 μM in growth media	disrupted; also recorded: reversed	resistant	reversed	negligible alterations	reversed															
N#CCCN [BAPN, β-aminopropionitrile]						inhibited; also recorded: decreased	blunted	normalized by BAPN rescue treatment, and kept at baseline by preventative BAPN treatment; also recorded: nearly normalized by BAPN rescue treatment and largely maintained at baseline by BAPN prevention treatment	decreased; also recorded: both prevented and reversed	decreased; also recorded: both prevented and reversed	decreased; also recorded: both prevented and reversed	reversed; also recorded: either prevented or rescued	reduced; also recorded: blunted	decrease; also recorded: blunted	reversed	temper; also recorded: blunted	lessened	reversed; also recorded: decreased	lessened	lessened
